Assay results from the METLIN SMRT retention time set (Domingo-Almenara et al. 2019).

Assay: gradient 5% acetonitrile 3 min, to 50% in 2 min, to 85% in 15 min, held 3 min, 100 µL/min
Conditions: column: Zorbax Extend-C18 2.1 x 50 mm; eluents: water / acetonitrile, 0.1% formic acid
How it was run: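 Pure standards were analyzed in mixtures of ~100 molecules using HPLC coupled to a quadrupole time-of-flight mass spectrometer, in both positive and negative ionization mode. Separation used a Zorbax Extend-C18 column (2.1 × 50 mm, 1.8 μm) at 100 μL/min, with water and acetonitrile each containing 0.1% formic acid. Dead and dwell volumes were 40 μL and 900 μL, and data were collected over 3 months. Retention time was read from computationally picked adduct peaks, each inspected manually.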

Compound	RP-LC retention time [s]
CC(=O)Nc1nsc(N2CCC(C(=O)N3CCN(c4ccc(C)cc4)CC3)CC2)n1	675
COc1ccccc1CN1C[C@@H]2C(=O)N(Cc3ccc4c(c3)OCO4)C(=O)[C@@H]2C1	724
Cc1ccc(-c2nnc(Cc3nc(-c4cccc(F)c4)no3)o2)cc1	1060
CS(=O)(=O)c1ccc2nc(NC(=O)c3ccc([N+](=O)[O-])o3)sc2c1	679
CCN(CC)S(=O)(=O)c1ccc2c(c1)CC(C(=O)NCCN(C)C)N2C(C)=O (stereo not given)	645
COc1ccc(N2CCN(c3cc(SCC(=O)Nc4cccc(SC)c4)ncn3)CC2)cc1	1000
COc1ccc(S(=O)(=O)NCCc2cn(C)c3ncccc23)cc1	696
COc1ccccc1CCC(=O)Nc1ccc2c(c1)Sc1ncccc1C(=O)N2C(C)C	922
Cc1cccc(Sc2nccnc2N2CCC(C(=O)N3CCOCC3)CC2)c1	900
COC(=O)c1ccc(Cn2nc(C3CCN(S(C)(=O)=O)CC3)n(C)c2=O)cc1	642
COc1cccc(C(=O)NC(NC(=O)c2cccc(OC)c2)c2ccc3c(c2)OCO3)c1	758
Cc1ccc(NC(=O)c2cn(C)nc2S(=O)(=O)N2CCSCC2)cc1F	981
CCOCCCNC(=O)C1CCCN(S(=O)(=O)c2ccc3c(ccn3C)c2)C1 (stereo not given)	788
Cc1c(Cl)cccc1N1C(=O)CN(S(C)(=O)=O)CC1(C)C(=O)NCc1ccccc1 (stereo not given)	850
COc1cccc(S(=O)(=O)N2CCN(C3=CC4=NC(C)CN4C=N3)CC2)c1 (stereo not given)	648
Cc1ccc(NS(=O)(=O)c2cc3c(s2)CCN(C(=O)C2CC2)C3)cc1	849
CC(=O)N1CCCSc2ccc(S(=O)(=O)N3CCN(c4ccc(Cl)cc4)CC3)cc21	983
COC(=O)c1c(C)c(C(=O)C(C)N(C(=O)c2ccc(F)cc2)C(C)C)c(C)n1C (stereo not given)	922
CC1CCCCN1CCCNC(=O)CN1C(=O)CSc2cccn2-c2ccccc21 (stereo not given)	651
COCCNc1nc(-c2cccc(Cl)c2)nnc1C	657
CCn1cc(CCNC(=O)c2ccccc2Cl)c2cccnc21	691
CCc1nc2cc(-c3noc(-c4cccc(OC)c4)n3)ccc2o1	1210

Compound	RP-LC retention time [s]
Cc1ccc(S(=O)(=O)N2CCN(C3=CC4=NC(C)CN4C=N3)CC2)cc1C (stereo not given)	698
COc1ccc(N2CCN(S(=O)(=O)c3cn(C)nc3C)CC2)cc1	719
CCOc1ccc(OCCNC(=O)NC2CCCCC2)cc1	800
CCOc1cc(=O)n2c(c1C(=O)NCc1ccc(C)o1)CCCCC2	688
Cc1ccc2c(c1)N(CCCC(=O)NCCCN1CC(C)CC(C)C1)C(=O)CO2 (stereo not given)	674
C[C@@H]1CN(C(=O)c2ccoc2)C[C@H]1c1nc(-c2ccncc2)no1	678
Brc1ccc2nc(-c3ccccc3)c(Nc3ccc4c(c3)OCO4)n2c1	748
Cc1ccc(C)c(-c2cc3c(=O)n(Cc4noc(-c5ccccn5)n4)ccn3n2)c1	923
O=C(CSCc1ccccc1)NCC#CCN1CCc2ccccc2C1	581
CC(NC(=O)c1cn(C)c2ncccc12)c1cccnc1 (stereo not given)	555
O=C(C1CC(=O)N(C2CCCC2)C1)N1CCC(c2c[nH]c3ccccc23)(c2c[nH]c3ccccc23)CC1 (stereo not given)	850
O=S(=O)(c1ccc2c(c1)CCCC2)N1CCCC1c1nc(-c2cccc(Cl)c2)no1 (stereo not given)	1410
CCC(CC)C(=O)N(C)CCc1noc(-c2ccc(C(=O)N3CCCC3)cc2)n1	796
C=CCNC(=O)c1snc(C(=O)NC(C)C)c1N	749
CN1C(=O)C(CC(=O)N2CCCCCC2)Sc2ncccc21 (stereo not given)	705
O=C(C1=CCN(Cc2ccccc2)CC1)N1CCN(c2ccc(F)cc2)CC1	655
Cc1cc2cc(CNC(=O)C(=O)c3c(C)[nH]c4ccccc34)ccc2[nH]1	1010
CC1(C)CC(=O)C2=C(C1)N(CC1CCCO1)C(=O)C2(NC(=O)c1ccccc1F)C(F)(F)F (stereo not given)	908
COc1ccccc1CCN1CC(=O)N(c2cccc(C)c2)[C@@H]2CS(=O)(=O)C[C@@H]21	850
COc1cccc(-c2ccc(=O)n(CCc3nc(-c4ccc(F)cc4)no3)n2)c1	981
COc1ccc2c(c1)C1(CCN(C(=O)Nc3ccccc3F)C1)C(=O)N2 (stereo not given)	701
O=C(CN1c2ccc(F)cc2-c2ccccc2S1(=O)=O)NCCN1CCOCC1	624

Compound	RP-LC retention time [s]
Cc1cc2nc(C(=O)Nc3ccc(F)c(Cl)c3)cc(C)n2n1	1080
Cc1ccn2cc(-c3ccc(NS(=O)(=O)c4cc(C)c(C)cc4C)cc3)nc2n1	712
CCc1ccc(S(=O)(=O)N2CCC3(CC2)NCCN=C3NCc2cc(F)cc(F)c2)cc1	798
Cc1cc(S(=O)(=O)N2CC[C@H](n3c(=O)n(C)c4cccnc43)C2)ccc1F	864
O=c1c2nc(-c3ccccc3)cn2ccn1-c1ccc(F)cc1	775
CN(c1cccc(Cl)c1)S(=O)(=O)c1cc2n(c1)CCCNC2=O	726
CCc1ccc2nc(Nc3ncc4c(n3)CC(c3cccc(Cl)c3)CC4=O)nc(C)c2c1 (stereo not given)	896
O=C(NC1CCN(c2cc(-c3ccccc3)[nH]n2)C1)c1ccc2cc[nH]c2c1 (stereo not given)	792
CCc1ccc(NC(=O)C2CCCN2S(=O)(=O)c2cc3c(cc2Cl)NC(=O)CO3)cc1 (stereo not given)	868
O=C(c1nnn2c1COC(c1ccc(Cl)cc1)C2)N1CCN(C(=O)C2(c3ccccc3)CC2)CC1 (stereo not given)	996
Cc1nc(-c2ccncc2)nc2c1CCC(=O)N2CCc1ccccn1	541
COCCN1CCC2(CC1)CN(Cc1ccccc1OC(C)C)Cc1ccccc1O2	611
Cc1ccc(N2CCC(NC(=O)c3ccc(Br)o3)C2=O)cc1 (stereo not given)	812
COc1cc([N+](=O)[O-])cc2sc(NC(=O)c3cc(=O)c4ccccc4o3)nc12	877
Cc1cccc(-c2noc(C3CCCN3S(=O)(=O)c3ccc4c(c3)CCC4)n2)c1 (stereo not given)	1270
CC(=O)Nc1ccc(NC(=O)c2ccc(-c3ccnc(N4CCCC4)n3)cc2)cc1	663
O=C(CCc1nnc2ccc(NCc3ccccc3)nn12)N1CCN(c2ccccn2)CC1	588
Cc1noc([C@@H]2CN(C(=O)c3cc(C)n(Cc4ccco4)c3C)C[C@H]2C(N)=O)n1	686
Cc1ccc(NC(=O)c2cccc([N+](=O)[O-])c2O)c([N+](=O)[O-])c1	982
Cc1cccc(N2C(=O)c3cccnc3C2CC(=O)N2CCN(c3ccccn3)CC2)c1 (stereo not given)	562
CC(C)Oc1ccc(CN2C[C@@H]3C(=O)N(CCCN4CCCC4=O)C(=O)[C@@H]3C2)cc1	581
